Source: patent publication US10005741B2, “Therapeutic compounds” (ARIZONA BOARD OF REGENTS ON BEHALF OF ARIZONA STATE …, priority 2014, dated 2018)

Test system: not given
Experiment: not given
Details: not given

| SMILES | melting point [°C] |
| --- | --- |
| CCN(c1ncc(C(=O)O)cn1)c1cc2c(cc1C)C(C)(C)CCC2(C)C [Compound A57, 2-(ethyl(3,5,5,8,8-pentamethyl-5,6,7,8-tetrahydronaphthalen-2-yl)amino)pyrimidine-5-carboxylic acid] | 231.9 to 233.1 |
| CCN(c1ccc2c(c1)C(C)(C)CCC2(C)C)c1cnc(C(=O)O)cn1 [Compound A58, 5-(ethyl(5,5,8,8-tetramethyl-5,6,7,8-tetrahydronaphthalen-2-yl)amino)pyrazine-2-carboxylic acid] | 213.1 to 214.4 |
| CCN(c1cnc(C(=O)O)cn1)c1cc2c(cc1C)C(C)(C)CCC2(C)C [Compound A59, 5-(ethyl(3,5,5,8,8-pentamethyl-5,6,7,8-tetrahydronaphthalen-2-yl)amino)pyrazine-2-carboxylic acid] | 203.6 to 205.1 |
| CCN(c1ccc(C(=O)O)c(F)c1)c1cc2c(cc1C)C(C)(C)CCC2(C)C [Compound A60, 4-(ethyl(3,5,5,8,8-pentamethyl-5,6,7,8-tetrahydronaphthalen-2-yl)amino)-2-fluorobenzoic acid] | 241.4 to 243.8 |
| CCN(c1ccc(C(=O)O)cc1)c1cc2c(cc1C)C(C)(C)CCC2(C)C [Compound A61, 4-(ethyl(3,5,5,8,8-pentamethyl-5,6,7,8-tetrahydronaphthalen-2-yl)amino)benzoic acid] | 252.4 to 256.8 |
| CCN(c1ccc(C(=O)O)c(F)c1)c1ccc2c(c1)C(C)(C)CCC2(C)C [Compound A62, 4-(ethyl(5,5,8,8-tetramethyl-5,6,7,8-tetrahydronaphthalen-2-yl)amino)-2-fluorobenzoic acid] | 252.4 to 256.8 |
| CCN(c1ccc(C(=O)O)cc1)c1ccc2c(c1)C(C)(C)CCC2(C)C [Compound A63, 4-(ethyl(5,5,8,8-tetramethyl-5,6,7,8-tetrahydronaphthalen-2-yl)amino)benzoic acid] | 247.8 to 250.6 |

Target: T1, human RXR (Homo sapiens, UniProt P19793)
T1 construct: expressed in transfected cells; host or cells: HCT-116 cells
T1 sequence (P19793 1-462) 1: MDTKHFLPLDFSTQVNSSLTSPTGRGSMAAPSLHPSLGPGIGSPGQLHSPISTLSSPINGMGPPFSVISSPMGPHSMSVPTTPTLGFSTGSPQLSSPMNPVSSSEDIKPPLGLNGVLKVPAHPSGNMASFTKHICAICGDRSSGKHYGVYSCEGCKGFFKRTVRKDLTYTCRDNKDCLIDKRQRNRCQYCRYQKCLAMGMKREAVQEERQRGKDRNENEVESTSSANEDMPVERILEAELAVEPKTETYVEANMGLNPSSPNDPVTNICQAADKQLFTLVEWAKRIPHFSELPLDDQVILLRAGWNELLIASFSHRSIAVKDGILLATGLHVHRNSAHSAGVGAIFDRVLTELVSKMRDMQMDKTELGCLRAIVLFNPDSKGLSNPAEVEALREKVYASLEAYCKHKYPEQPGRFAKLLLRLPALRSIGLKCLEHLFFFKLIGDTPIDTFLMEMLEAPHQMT
T1 sequence (P19793 1-462) 2: T1 sequence (P19793 1-462) 1
Experiment: Test A: RXR mammalian two-hybrid luciferase assay in transfected HCT-116 cells
Assay type: cell-based
Details: RXR mammalian two-hybrid system, luciferase reporter, 24 hours treatment, dose-response 1x10^-9 to 0.3x10^-5 M
Protocol: HCT-116 cells were plated overnight at 80,000 cells/well in a 24 well plate and maintained as described above. The cells were co-transfected using a human RXR binding domain (BD) vector, a human RXR activation domain (AD) vector, a luciferase reporter gene containing BD-binding sites and renilla control plasmid. Transfection was achieved via 2 μL/well of Express-IN transfection reagent which was allowed to incubate for 24 hours with the cells. […] The amount of rexinoid activity at each concentration was measured using the same luciferase assay described above, and EC50 values were derived from dose-response curves of ligand concentration versus normalized luciferase activity.

| SMILES | EC50 [nM] |
| --- | --- |
| Cc1cnc(/C=C/C(=O)O)cc1-c1cc2c(cc1C)C(C)(C)CCC2(C)C [Compound A42] | 3.7 |
| Cc1cc2c(cc1-c1cncc(/C=C/C(=O)O)c1)C(C)(C)CCC2(C)C [Compound A45, (E)-3-(5-(3,5,5,8,8-pentamethyl-5,6,7,8-tetrahydronaphthalen-2-yl)pyridin-3-yl)acrylic acid] | 710 |
| Cc1cc2c(cc1-c1nc(/C=C/C(=O)O)ccc1C)C(C)(C)CCC2(C)C [Compound A46, (E)-3-(5-methyl-6-(3,5,5,8,8-pentamethyl-5,6,7,8-tetrahydronaphthalen-2-yl)pyridin-2-yl)acrylic acid] | 305 |
| Cc1cc2c(cc1-n1c(C(F)(F)F)nc3cc(C(=O)O)ccc31)C(C)(C)CCC2(C)C [Compound A48] | 20 |
